Experimental data published in patent US20260063641A1, “COMPOSITIONS AND METHODS FOR LABELING AND DETECTING BINDING PARTNERS” (UNIVERSITY OF UTAH RESEARCH FOUNDATION, priority 2022, published 2026).
Entries after “also recorded” stand apart in the source; their conditions may differ. One block for each molecule: values may come before it.

Key:
Type in all cases: cell-based
NLuc-FKBP12F36V = biological target: T1, NLuc-FKBP12F36V (Homo sapiens, UniProt P62942, F37V); test: FKBP12F36V cellular target engagement assay (competition with dTAG-13, NLuc/FLuc signal); conditions: for competitive displacement of dTAG-13 (FKBP12F36V cellular target engagement): mean±S.D. of n=3 technical replicates, FIG. 4D-F
T1 construct: expressed in transfected cells
T1 sequence (P62942 2-108 F37V limits assumed): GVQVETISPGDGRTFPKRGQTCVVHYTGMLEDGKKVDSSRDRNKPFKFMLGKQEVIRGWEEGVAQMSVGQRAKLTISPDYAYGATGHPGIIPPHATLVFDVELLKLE
From the text: This method, named the biotin targeting chimera (BioTAC) system, uses bifunctional molecules composed of a compound-of-interest linked to selective FKBP12F36V recruiter orthoAP1867, to recruit a ligandable proximity labeling enzyme (mTurbo-FKBP12F36V) to compound-bound complexes enabling their biotinylation and subsequent affinity purification (FIG. TA-B). To benchmark the BioTAC system for accurate detection of the direct targets of ligands the well-characterized BET protein inhibitor (+)-JQ1, which potently binds BRD2, BRD3 and BRD4 (as well as the testes-specific BET protein BRDT), was selected as a test case. A series of bifunctional molecules consisting of (+)-JQ1 conjugated to […] were synthesized via a variable linker (FIG. 1B, FIG. 4A-C). (+)-JQ1-bifunctional molecule cell permeability was measured using an FKBP12F36V cellular target engagement assay adapted from Nabet et. al Nat Commun 11, 4687 (2020). Briefly, FKBP12F36V binding molecules compete with an FKBP12F36V targeting PROTAC (dTAG-13), for NLuc-FKBP12F36V occupancy, rescuing degradation and resulting in an increase in NLuc/FLuc (control) signal relative to DMSO-treated cells. All synthesized compounds were comparably cell permeable (FIG. 4D-E).

[1] = biological target: T2, MEK1:trametinib:KSR1 complex (Homo sapiens, UniProt Q02750); test: BioTAC detection of molecular glue complex by immunoblot of MEK1 and KSR1; conditions: 4 hr treatment with 1 μM, 100 μM biotin
T2 construct: Immunoblot analysis of MEK1 and KSR1 following treatment of HEK293 cells; host or cells: HEK293 transiently transfected with the BioTAC plasmid
T2 sequence (Q02750 whole entry, one chain of several): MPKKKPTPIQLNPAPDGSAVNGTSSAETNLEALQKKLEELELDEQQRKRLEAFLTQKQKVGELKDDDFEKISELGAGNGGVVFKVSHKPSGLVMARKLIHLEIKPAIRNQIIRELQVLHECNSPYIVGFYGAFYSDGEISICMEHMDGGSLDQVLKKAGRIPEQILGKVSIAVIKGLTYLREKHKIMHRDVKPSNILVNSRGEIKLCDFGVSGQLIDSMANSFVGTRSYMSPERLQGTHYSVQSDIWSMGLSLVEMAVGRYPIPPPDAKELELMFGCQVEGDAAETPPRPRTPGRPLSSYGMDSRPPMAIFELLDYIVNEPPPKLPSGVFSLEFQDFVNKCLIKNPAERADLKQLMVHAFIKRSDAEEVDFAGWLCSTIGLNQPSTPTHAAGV
Description: (§1) Bifunctional trametinib analogue JWJ-01-280/Cpd2 was synthesized, with a linker attachment informed by a reported trametinib-derived BRET probe named Tram-bo (FIG. 3B). […] The ability of the BioTAC system to detect both known interactors of trametinib was evaluated by Western blot, as described above.
(§2) 0.6 million HEK293 cells were plated into wells containing 1 mL of complete media (DMEM, 10% FBS, 1% pen/strep) and incubated overnight. Cells were transiently transfected with 100 μL of OptiMEM media containing 1 μg of BioTAC plasmid and 3 μL of TransIT-2020 transfection reagent (Mirus, MIR5400) for 24 hr. Following a media change, cells were pre-treated with parental molecules or DMSO for 10 min, then treated with bifunctional compound for 10 min, and finally labeled in 100 μM biotin for the indicated time. Cells were washed twice with DPBS then harvested into 1.5 mL tubes. […] Protein concentration was determined by BCA assay (Thermo, 23225), then 100 ug protein was rotated overnight at 4° C. with 8 μL of streptavidin magnetic beads (Thermo, 88817) that had been prewashed twice in RIPA lysis buffer. […]

MEK1 = biological target: T3, MEK1 (Homo sapiens, UniProt Q02750); test: BioTAC proximity labeling, streptavidin enrichment and immunoblot for MEK1; conditions: HEK293 with miniTurbo-FKBP12F36V, 100 μM biotin, dose and time point optimization
T3 construct: Immunoblot analysis of MEK1/2 enrichment following treatment of HEK293 cells; host or cells: HEK293 transiently transfected with the BioTAC plasmid
T3 sequence (Q02750 whole entry): as the sequence (Q02750 whole entry, one chain of several) above
T3 sequence (as listed by the source partner): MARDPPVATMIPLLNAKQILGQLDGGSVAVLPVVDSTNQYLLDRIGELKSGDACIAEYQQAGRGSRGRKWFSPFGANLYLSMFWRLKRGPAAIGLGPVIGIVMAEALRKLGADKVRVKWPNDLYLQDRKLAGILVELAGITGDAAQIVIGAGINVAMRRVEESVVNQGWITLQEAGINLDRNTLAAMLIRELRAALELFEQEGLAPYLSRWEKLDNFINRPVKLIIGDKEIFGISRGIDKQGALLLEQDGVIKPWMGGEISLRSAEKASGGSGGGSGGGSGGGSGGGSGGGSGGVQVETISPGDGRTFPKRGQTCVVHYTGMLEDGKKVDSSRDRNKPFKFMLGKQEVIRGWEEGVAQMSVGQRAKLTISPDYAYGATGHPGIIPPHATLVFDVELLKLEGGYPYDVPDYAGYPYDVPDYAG
Description: as §1, §2

BRD4 = biological target: T4, BRD4 (Homo sapiens, UniProt O60885); test: BioTAC proximity labeling, streptavidin pulldown and western blot for BRD4; conditions: variable concentrations of free (+)-JQ1 against 1 μM bifunctional (+)-JQ1 recruiters, all timepoints
T4 construct: host or cells: HEK293 transiently transfected with the BioTAC plasmid
Description: Next bifunctional molecule guided-proximity labeling experiments were performed using validated reagents. HEK293 cells transiently transfected with mTurbo-FKBP12F36V were treated with 100 μM biotin, 1 μM bifunctional (+)-JQ1 recruiters, and variable concentrations of free (+)-JQ1 to off-compete the bifunctional molecule and rescue biotinylation. Biotinylated proteins were isolated from cell lysates via streptavidin bead pulldown and analyzed by western blot for BRD4, a primary target of (+)-JQ1.
as §2

MEK1 labelling (immunoblot) (MEK1): efficient MEK1 labelling
Molecule: CC[C@H](C(=O)N1CCCC[C@H]1C(=O)O[C@H](CCc1ccc(OC)c(OC)c1)c1ccccc1OCC(=O)NCCOCCOCCC(=O)Nc1cccc(-n2c(=O)n(C3CC3)c(=O)c3c(Nc4ccc(I)cc4F)n(C)c(=O)c(C)c32)c1)c1cc(OC)c(OC)c(OC)c1 [Cpd2, (R)-1-(2-(2-((2-(2-(3-((3-(3-Cyclopropyl-5-((2-fluoro-4-iodophenyl)amino)-6,8-dimethyl-2,4,7-trioxo-3,4,6,7-tetrahydropyrido[4,3-d]pyrimidin-1(2H)-yl)phenyl)amino)-3-oxopropoxy)ethoxy)ethyl)amino)-2-oxoethoxy)phenyl)-3-(3,4-dimethoxyphenyl)propyl (S)-1-((S)-2-(3,4,5-trimethoxyphenyl)butanoyl)piperidine-2-carboxylate]
cell permeability measured by FKBP12F36V cellular target engagement assay (NLuc-FKBP12F36V; rescue of NLuc-FKBP12F36V degradation by dTAG-13, relative to DMSO): less cell permeable than the (+)-JQ1 derivatives
detection/enrichment of MEK1:trametinib:KSR1 complex (immunoblot of MEK1 and KSR1) [1]: detected; also recorded: successful enrichment and competition with trametinib

competitive displacement of dTAG-13 (FKBP12F36V cellular target engagement) (NLuc-FKBP12F36V): competitive displacement of dTAG-13
Molecule: CC[C@H](C(=O)N1CCCC[C@H]1C(=O)O[C@H](CCc1ccc(OC)c(OC)c1)c1ccccc1OCC(=O)NCCOCCOCCNC(=O)C[C@@H]1N=C(c2ccc(Cl)cc2)c2c(sc(C)c2C)-n2c(C)nnc21)c1cc(OC)c(OC)c(OC)c1 [JWJ-01-236, (R)-1-(2-((14-((S)-4-(4-Chlorophenyl)-2,3,9-trimethyl-6H-thieno[3,2-f][1,2,4]triazolo[4,3-a][1,4]diazepin-6-yl)-2,13-dioxo-6,9-dioxa-3,12-diazatetradecyl)oxy)phenyl)-3-(3,4-dimethoxyphenyl)propyl (S)-1-((S)-2-(3,4,5-trimethoxyphenyl)butanoyl)piperidine-2-carboxylate]

competitive displacement of dTAG-13 (FKBP12F36V cellular target engagement) (NLuc-FKBP12F36V): competitive displacement of dTAG-13
Molecule: CC[C@H](C(=O)N1CCCC[C@H]1C(=O)O[C@H](CCc1ccc(OC)c(OC)c1)c1ccccc1OCC(=O)NCCCCCCCCNC(=O)C[C@@H]1N=C(c2ccc(Cl)cc2)c2c(sc(C)c2C)-n2c(C)nnc21)c1cc(OC)c(OC)c(OC)c1 [JWJ-01-255, (R)-1-(2-(2-((8-(2-((S)-4-(4-Chlorophenyl)-2,3,9-trimethyl-6H-thieno[3,2-f][1,2,4]triazolo[4,3-a][1,4]diazepin-6-yl)acetamido)octyl)amino)-2-oxoethoxy)phenyl)-3-(3,4-dimethoxyphenyl)propyl (S)-1-((S)-2-(3,4,5-trimethoxyphenyl)butanoyl)piperidine-2-carboxylate]

BRD4 pulldown in presence of free competitor (BRD4): dose dependent decrease in BRD4 pulldown
Molecule: (+)-JQ1 [reference compound]
